Data reported in patent US7094781B2, “Sulfamides and their use as endothelin receptor antagonists” (Actelion Pharmaceuticals Ltd., priority 2000, dated 2006).

Tests used:
[1] = target: T1, human recombinant ETA receptor (Homo sapiens, UniProt P25101); assay: Inhibition of [125I]ET-1 binding to membranes from CHO cells carrying human ETA receptors
T1 construct: expressed in transfected cells; host or cells: CHO cells (microsomal membranes)
T1 sequence (P25101 21-427): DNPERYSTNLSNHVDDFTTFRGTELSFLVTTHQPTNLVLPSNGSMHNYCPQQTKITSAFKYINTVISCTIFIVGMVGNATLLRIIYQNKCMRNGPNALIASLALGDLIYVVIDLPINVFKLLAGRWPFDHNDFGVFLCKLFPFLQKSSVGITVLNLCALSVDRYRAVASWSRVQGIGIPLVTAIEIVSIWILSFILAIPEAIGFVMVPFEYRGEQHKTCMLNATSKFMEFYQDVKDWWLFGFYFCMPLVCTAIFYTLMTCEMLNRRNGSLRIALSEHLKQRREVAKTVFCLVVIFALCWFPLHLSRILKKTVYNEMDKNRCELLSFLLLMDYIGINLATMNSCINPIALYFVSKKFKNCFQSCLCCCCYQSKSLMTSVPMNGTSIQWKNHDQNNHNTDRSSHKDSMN

[2] = target: T2, human recombinant ETB receptor (Homo sapiens, UniProt P24530); assay: Inhibition of [125I]ET-1 binding to membranes from CHO cells carrying human ETB receptors
T2 construct: expressed in transfected cells; host or cells: CHO cells (microsomal membranes)
T2 sequence (P24530 27-442): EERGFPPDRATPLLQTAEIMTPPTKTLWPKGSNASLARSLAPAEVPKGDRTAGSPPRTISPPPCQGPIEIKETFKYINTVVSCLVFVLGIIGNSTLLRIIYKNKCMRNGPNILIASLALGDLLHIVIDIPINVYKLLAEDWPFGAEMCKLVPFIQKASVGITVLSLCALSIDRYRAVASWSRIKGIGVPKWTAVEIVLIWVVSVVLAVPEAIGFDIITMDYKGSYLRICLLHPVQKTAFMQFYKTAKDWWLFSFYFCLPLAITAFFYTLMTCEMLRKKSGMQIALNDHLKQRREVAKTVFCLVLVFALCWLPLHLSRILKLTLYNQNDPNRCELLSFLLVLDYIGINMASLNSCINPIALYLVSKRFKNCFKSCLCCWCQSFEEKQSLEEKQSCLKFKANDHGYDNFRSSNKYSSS

Molecule `O=S(=O)(NCC1CC1)Nc1ncnc(OCCOc2ncc(Br)cn2)c1-c1ccc(Br)cc1` [Example 107] has an IC50 [1] of 0.25 nM and an IC50 [2] of 96 nM.

`COc1ccccc1Oc1c(NS(=O)(=O)Nc2ccccn2)nc(-c2ccncc2)nc1OC` [Example 9, pyridine-2-sulfamic acid-[6-methoxy-5-(o-methoxyphenoxy)-2-(4-pyridyl)-4-pyrimidinyl]-amide] showed an IC50 [1] of 3630 nM and an IC50 [2] of over 10000 nM.

`CCNS(=O)(=O)Nc1nc(-c2ccncc2)nc(OC)c1Oc1ccccc1OC` [Example 7, ethyl sulfamic acid-[6-methoxy-5-(o-methoxy-phenoxy)-2-(4-pyridyl)-pyrimidin-4-yl]-amide] gave an IC50 [1] of 1240 nM and an IC50 [2] of 9470 nM.

`O=S(=O)(NCc1cccs1)Nc1ncnc(OCCOc2ccc(C(F)(F)F)cn2)c1-c1ccc(Cl)cc1` [Example 22] gave an IC50 [1] of 12 nM and an IC50 [2] of 434 nM.

`COc1ccccc1Oc1c(NS(=O)(=O)Nc2ccc(C(C)C)cc2)nc(-c2ccncc2)nc1OCCOc1ncccn1` [Example 4, 4-i-propyl-phenyl sulfamic acid-[6-[2-(pyrimidin-2-yloxy)-ethoxy]-5-(o-methoxyphenoxy)-2-(4-pyridyl)-pyrimidin-4-yl]-amide] gave an IC50 [1] of 96 nM and an IC50 [2] of 680 nM.

For `CCNS(=O)(=O)Nc1ncnc(OCCOc2ncc(Br)cn2)c1-c1ccc(Cl)cc1` [Example 115], the IC50 [1] was 2.2 nM and the IC50 [2] was over 1000 nM.

Molecule `COc1ccc(CNS(=O)(=O)Nc2nc(-c3ncccn3)nc(OCCOc3ncc(OC)cn3)c2Oc2ccccc2OC)cc1` [Example 49] has an IC50 [1] of 0.82 nM and an IC50 [2] of 25.4 nM.

`COc1ccc(Cl)c(Oc2c(NS(=O)(=O)NCc3ccccc3)ncnc2OCCO)c1` [Example 211, Benzylsulfamic acid [5-(2-chloro-5-methoxy-phenoxy)-6-(2-hydroxy-ethoxy)-pyrimidin-4-yl]-amide] was tested, and the IC50 [1] was 290 nM and the IC50 [2] was 722 nM.

`COc1ccccc1Oc1c(NS(=O)(=O)NCc2ccccn2)nc(-c2ncccn2)nc1OCCOc1nccs1` [Example 157] showed an IC50 [1] of 42.2 nM and an IC50 [2] of 954 nM.

Molecule `COc1cnc(OCCOc2nc(-c3ncccn3)nc(NS(=O)(=O)NCc3ccco3)c2Oc2ccccc2OC)nc1` [Example 59] has an IC50 [1] of 5.6 nM and an IC50 [2] of 124 nM.

Molecule `C=CCOc1nc(-c2ccnc(-c3nnn[nH]3)c2)nc(NS(=O)(=O)NCc2ccccc2)c1Oc1ccccc1OC` [Example 209, Benzylsulfamic acid [6-allyloxy-5-(2-methoxy-phenoxy)-2-[2-(1H-tetrazol-5-yl)-pyridin-4-yl]-pyrimidin-4-yl]-amide] has an IC50 [1] of 733 nM and an IC50 [2] of over 1000 nM.

For `COc1cnc(OCCOc2ncnc(NS(=O)(=O)N(C)Cc3ccccc3)c2-c2ccc(Cl)cc2)nc1` [Example 194], the IC50 [1] was 9.5 nM and the IC50 [2] was over 1000 nM.

`COc1cnc(OCCOc2nc(C3CC3)nc(NS(=O)(=O)NCc3ccccc3)c2Oc2ccccc2OC)nc1` [Example 89] showed an IC50 [1] of 19 nM and an IC50 [2] of 621 nM.

Work on `COc1cnc(OCCOc2ncnc(NS(=O)(=O)NCc3ccc4c(c3)OCO4)c2Oc2cc(OC)ccc2Cl)nc1` [Example 152] yielded an IC50 [1] of 1.1 nM and an IC50 [2] of 79 nM.

With `COc1ccccc1Oc1c(NS(=O)(=O)NC2CC2)nc(-c2ncccn2)nc1OCCOc1ncc(Br)cn1` [Example 199] the IC50 [1] was 12 nM and the IC50 [2] was 205 nM.

With `O=S(=O)(NCc1ccco1)Nc1ncnc(OCCOc2ncc(Br)cn2)c1-c1ccc(Cl)cc1` [Example 24] the IC50 [1] was 2.2 nM and the IC50 [2] was 2500 nM.

Work on `COc1ccccc1Oc1c(NS(=O)(=O)NCc2ccccc2)nc(-c2cnccn2)nc1OCCOc1ncc(Br)cn1` [Example 71] yielded an IC50 [1] of 23.6 nM.

Work on `COc1ccccc1Oc1c(NS(=O)(=O)NCc2ccccc2)nc(N2CCOCC2)nc1OCCOc1ncc(Br)cn1` [Example 206, Benzylsulfamic acid [6-[2-(5-bromo-pyrimidin-2-yloxy)-ethoxy]-5-(2-methoxy-phenoxy)-2-morpholin-4-yl-pyrimidin-4-yl]-amide] yielded an IC50 [1] of 1.03 nM.

`COc1ccccc1Oc1c(NS(=O)(=O)NCc2ccc(Cl)cc2)nc(-c2ncccn2)nc1OCCOc1ncc(Br)cn1` [Example 56] was tested, and the IC50 [1] was 6.9 nM and the IC50 [2] was 164 nM.

Work on `Cc1ccc(NS(=O)(=O)Nc2ncnc(OCCOc3ncc(Br)cn3)c2-c2ccc(C)cc2)cc1` [Example 12, 4-methyl-phenyl sulfamic acid-[6-[2-(5-bromo-pyrimidin-2-yloxy)-ethoxy]-5-(p-tolyl)-4-pyrimidinyl]-amide] yielded an IC50 [1] of 59 nM and an IC50 [2] of over 10000 nM.

Molecule `COc1cccc(CNS(=O)(=O)Nc2nc(-c3ncccn3)nc(OCCOC(=O)Nc3ccccc3)c2Oc2ccccc2OC)c1` [Example 172] has an IC50 [1] of 3 nM and an IC50 [2] of 16 nM.

With `COc1ccccc1Oc1c(NS(=O)(=O)NCc2ccccn2)nc(C2CC2)nc1OCCOc1ncc(Br)cn1` [Example 84] the IC50 [1] was 37 nM and the IC50 [2] was 574 nM.

For `Cc1ccc(-c2c(NS(=O)(=O)NCc3ccc4c(c3)OCO4)ncnc2OCCOc2ncc(Br)cn2)cc1` [Example 145], the IC50 [1] was 1.64 nM and the IC50 [2] was over 1000 nM.

`COc1ccccc1CNS(=O)(=O)Nc1nc(-c2ncccn2)nc(OCCOc2ncccn2)c1Oc1ccccc1OC` [Example 175] was tested, and the IC50 [1] was 22 nM and the IC50 [2] was 62 nM.

`COc1ccccc1Oc1c(NS(=O)(=O)NCc2ccccc2)nc(-c2ccnc(-c3nnn[nH]3)c2)nc1OCCO` [Example 208, Benzylsulfamic acid [6-(2-hydroxy-ethoxy)-5-(2-methoxy-phenoxy)-2-[2-(1H-tetrazol-5-yl)-pyridin-4-yl]-pyrimidin-4-yl]-amide] was tested, and the IC50 [1] was 17 nM and the IC50 [2] was 342 nM.

With `COc1ccc(CNS(=O)(=O)Nc2nc(-c3ncccn3)nc(OCCOC(=O)Nc3ccccc3)c2Oc2ccccc2OC)cc1OC` [Example 168] the IC50 [1] was 2.7 nM and the IC50 [2] was 1.6 nM.

`COc1cnc(OCCOc2nc(-c3ccncc3)nc(NS(=O)(=O)NCC3CC3)c2Oc2ccccc2OC)nc1` [Example 124] gave an IC50 [1] of 7.3 nM and an IC50 [2] of 102 nM.

Work on `CSc1cnc(OCCOc2ncnc(NS(=O)(=O)NC3CC3)c2-c2ccc(Br)cc2)nc1` [Example 197] yielded an IC50 [1] of 1.16 nM and an IC50 [2] of 418 nM.

In the case of `COc1cnc(OCCOc2nc(-c3ccncc3)nc(NS(=O)(=O)NCC3CCCCC3)c2Oc2ccccc2OC)nc1` [Example 131], the IC50 [1] is reported as 3.2 nM and the IC50 [2] is reported as 233 nM.

With `CCCCNS(=O)(=O)Nc1ncnc(OCCOc2ncc(SC)cn2)c1-c1ccc(Cl)cc1` [Example 118] the IC50 [1] was 0.34 nM and the IC50 [2] was 611 nM.

`COc1ccccc1Oc1c(NS(=O)(=O)NCc2ccccc2)nc(-c2ccncc2)nc1OCCOc1ncc(Br)cn1` [Example 73] gave an IC50 [1] of 1.9 nM.

With `O=S(=O)(Nc1ncnc(OCCOc2ncc(Br)cn2)c1-c1ccc(Cl)cc1)NC1CC1` [Example 114] the IC50 [1] was 8.3 nM and the IC50 [2] was over 1000 nM.

Work on `COc1cnc(OCCOc2ncnc(NS(=O)(=O)NCc3ccccc3)c2-c2ccc(Cl)cc2)nc1` [Example 15] yielded an IC50 [1] of 18.5 nM and an IC50 [2] of 2160 nM.

`COc1cnc(OCCOc2ncnc(NS(=O)(=O)NCc3ccco3)c2-c2ccc(Cl)cc2)nc1` [Example 23] gave an IC50 [1] of 3.6 nM and an IC50 [2] of 1590 nM.

With `COc1cnc(OCCOc2nc(-c3ncccn3)nc(NS(=O)(=O)NCC3CC3)c2Oc2ccccc2OC)nc1` [Example 127] the IC50 [1] was 7.3 nM and the IC50 [2] was 87 nM.

Work on `COc1cnc(OCCOc2nc(-c3ncccn3)nc(NS(=O)(=O)N(C)Cc3ccccc3)c2Oc2ccccc2OC)nc1` [Example 188] yielded an IC50 [1] of 11 nM and an IC50 [2] of 290 nM.

`COc1ccccc1Oc1c(NS(=O)(=O)NCc2ccccc2)nc(C2CC2)nc1OCCOC(=O)Nc1ccccn1` [Example 91] showed an IC50 [1] of 2.5 nM and an IC50 [2] of 79 nM.

Work on `CCc1ccc(-c2c(NS(=O)(=O)NCc3ccccc3)ncnc2OCCOc2ncc(Br)cn2)cc1` [Example 29] yielded an IC50 [1] of 13.5 nM.

`COc1cnc(OCCOc2ncnc(NS(=O)(=O)NCc3ccc4c(c3)OCO4)c2-c2ccc(C)cc2)nc1` [Example 146] gave an IC50 [1] of 5 nM and an IC50 [2] of 514 nM.

In the case of `COc1ccccc1Oc1c(NS(=O)(=O)NCc2ccccc2)ncnc1OCCOc1ncc(Br)cn1` [Example 96], the IC50 [1] is reported as 6.3 nM.

Work on `CCNS(=O)(=O)Nc1nc(-c2ncccn2)nc(OCCOc2ncc(Br)cn2)c1Oc1ccccc1OC` [Example 184] yielded an IC50 [1] of 29.5 nM.

For `O=S(=O)(Nc1ncnc(OCCOc2ncc(Br)cn2)c1-c1ccc(Br)cc1)NC1CC1` [Example 196], the IC50 [1] was 4.4 nM.

Molecule `COc1ccc(Cl)c(Oc2c(NS(=O)(=O)NCc3ccccc3)ncnc2OCCOc2ncc(Br)cn2)c1` [Example 212, Benzylsulfamic acid [6-[2-(5-bromo-pyrimidin-2-yloxy)-ethoxy]-5-(2-chloro-5-methoxy-phenoxy)-pyrimidin-4-yl]-amide] has an IC50 [1] of 3.1 nM.

With `COc1ccccc1Oc1c(NS(=O)(=O)N(C)Cc2ccccc2)nc(-c2ncccn2)nc1OCCOc1ncc(Br)cn1` [Example 187] the IC50 [1] was 9.8 nM.

With `CCNS(=O)(=O)Nc1ncnc(OCCOc2ncc(Br)cn2)c1-c1ccc(Br)cc1` [Example 104] the IC50 [1] was 0.88 nM.

For `COc1ccccc1Oc1c(NS(=O)(=O)NCc2ccccc2)nc(C2CC2)nc1OCCOc1ncc(Br)cn1` [Example 88], the IC50 [1] was 16 nM.
